Data from ChEMBL document CHEMBL5532680, “Identification of a Sonically Activated Degrader of Methionine Adenosyltransferase 2A by an in Silico Approach Assisted with the Hole-Electron Analysis” (J Med Chem, 2024).
The source made the active and inactive calls. No cut-off for these calls is given here.

Tests used:
HCT-116 [1] = assay: Antiproliferative activity against wild type human HCT-116 cells at less than 1 uM incubated for 5 days by MTT method; type: functional, cell-based; details: time 5.0 day
HCT-116 [2] = assay: Induction of ROS generation in human HCT-116 cells assessed as fold increase at 0.1 uM preincubated for 6 hrs followed by sonication for 4 mins by DCFH-DA staining based flow cytometry analysis; type: functional; details: time 364 min, 6.067 h
[3] = target: T1, S-adenosylmethionine synthase isoform type-2 (Homo sapiens, UniProt P31153); assay: Induction of MAT2A degradation in human HCT-116 cells assessed as MAT2A level at 0.1 uM preincubated for 4 hrs followed by 1.0 MHz, 0.8W/cm2 ultrasound treatment for 4 mins by Western blotting assay; type: cell-based; details: time 244.0 min
T1 sequence (P31153 whole entry, looked up, canonical isoform): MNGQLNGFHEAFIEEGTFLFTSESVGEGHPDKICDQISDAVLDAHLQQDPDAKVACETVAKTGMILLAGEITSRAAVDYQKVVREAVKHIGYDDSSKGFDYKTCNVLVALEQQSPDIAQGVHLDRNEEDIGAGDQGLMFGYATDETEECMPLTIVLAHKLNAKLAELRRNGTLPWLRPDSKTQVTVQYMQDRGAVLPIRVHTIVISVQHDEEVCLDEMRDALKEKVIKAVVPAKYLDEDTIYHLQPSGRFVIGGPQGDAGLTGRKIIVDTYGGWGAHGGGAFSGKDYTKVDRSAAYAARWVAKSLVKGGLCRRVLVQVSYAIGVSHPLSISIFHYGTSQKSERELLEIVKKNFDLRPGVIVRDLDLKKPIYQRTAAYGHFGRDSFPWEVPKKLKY

[4] = target: T1, S-adenosylmethionine synthase isoform type-2; assay: Induction of MAT2A degradation in human HCT-116 cells assessed as MAT2A level at 0.1 uM preincubated for 4 hrs followed by 1.0 MHz, 0.8W/cm2 ultrasound treatment for 4 mins and measured upto 24 hrs by Western blotting assay; type: cell-based; details: time <= 1684.0 min
HCT-116 [5] = assay: Antiproliferative activity against MTAP knocked out human HCT-116 cells under 1 min sonication; type: functional, cell-based; details: HCT-116, 1 min
HCT-116 [6] = assay: Antiproliferative activity against wild type human HCT-116 cells assessed as cell viability at 10 uM under 4 mins sonication; type: functional; details: HCT-116, 4 min, read-out: Activity
HCT-116 [7] = assay: Induction of apoptosis in human HCT-116 cells assessed as increase in late apoptotic cells at 0.1 uM preincubated for 24 hrs followed by sonication for 4 mins by annexin V-FITC/PI staining based flow cytometry analysis relative to control; type: functional; details: time 1444 min, 24.07 h
[8] = Tmax in ICR mouse at 10 mg/kg, po measured upto 24 hrs by LC-MS/MS analysis; type: ADME, organism-based; details: in vivo
[9] = Half-life in ICR mouse at 1 mg/kg, iv measured upto 24 hrs by LC-MS/MS analysis; type: ADME, organism-based; details: in vivo
[10] = Half-life in ICR mouse at 10 mg/kg, po measured upto 24 hrs by LC-MS/MS analysis; type: ADME, organism-based; details: in vivo
[11] = AUC in ICR mouse at 10 mg/kg, po measured upto 24 hrs by LC-MS/MS analysis; type: ADME, organism-based; details: in vivo
[12] = Volume of distribution at steady state in ICR mouse at 1 mg/kg, iv measured upto 24 hrs by LC-MS/MS analysis; type: ADME, organism-based; details: in vivo, read-out: Vdss
[13] = Oral bioavailability in ICR mouse at 10 mg/kg measured upto 24 hrs by LC-MS/MS analysis; type: ADME, organism-based; details: in vivo
[14] = Tmax in BALB/c mouse at 10 mg/kg, po measured upto 24 hrs by LC-MS/MS analysis; type: ADME, organism-based; details: in vivo
[15] = Cmax in BALB/c mouse at 10 mg/kg, po measured upto 24 hrs by LC-MS/MS analysis; type: ADME, organism-based; details: in vivo
[16] = Drug metabolism in BALB/c mouse blood after 24 hrs; type: ADME, tissue-based
[17] = Oral bioavailability in BALB/c mouse at 10 mg/kg measured upto 24 hrs by LC-MS/MS analysis; type: ADME, organism-based; details: in vivo
[18] = Biodistribution in MATP knocked out human HCT-116 cells xenografted in BALB/c mouse assessed as fluorescence intensity in liver at 10 mg/kg, po measured after 24 hrs; type: ADME, organism-based; details: in vivo
[19] = Biodistribution in MATP knocked out human HCT-116 cells xenografted in BALB/c mouse assessed as fluorescence intensity in spleen at 10 mg/kg, po measured after 24 hrs; type: ADME, organism-based; details: in vivo
[20] = Biodistribution in […] knocked out human HCT-116 cells xenografted in BALB/c mouse assessed as fluorescence intensity in kidney at 10 mg/kg, po measured after 24 hrs; type: ADME, organism-based; details: in vivo
HCT-116 [21] = assay: Antitumor activity against […] knocked out human HCT-116 cells xenografted in BALB/c mouse assessed as tumor growth inhibition at 100 mg/kg, po administered once a day for 6 hrs and measured after 3 weeks; type: functional; details: HCT-116, 504 h, read-out: TGI
HCT-116 [22] = assay: Antitumor activity against […] knocked out human HCT-116 cells xenografted in BALB/c mouse assessed as tumor regression at 10 mg/kg, po administered once a day followed by 4 mins sonication post 6 hrs of compound administration and measured for 3 weeks; type: functional
[23] = Toxicity in BALB/c mouse xenografted with human HCT-116 cells assessed as body weight loss at 10 mg/kg, po administered once a day followed by 4 mins sonication post 6 hrs of compound administration and measured for 3 weeks; type: organism-based; details: in vivo, 504 h
HCT-116 [24] = assay: Antitumor activity against […] knocked out human HCT-116 cells xenografted in BALB/c mouse assessed as reduction in tumor weight at 10 mg/kg, po administered once a day followed by 4 mins sonication post 6 hrs of compound administration and measured for 3 weeks; type: functional, organism-based
[25] = Toxicity in BALB/c mouse xenografted with human HCT-116 cells assessed as liver damage at 10 mg/kg, po by H and E staining based assay; type: organism-based; details: in vivo
[26] = Toxicity in BALB/c mouse xenografted with human HCT-116 cells assessed as heart damage at 10 mg/kg, po by H and E staining based assay; type: organism-based; details: in vivo
[27] = Toxicity in BALB/c mouse xenografted with human HCT-116 cells assessed as kidney damage at 10 mg/kg, po by H and E staining based assay; type: organism-based; details: in vivo
[28] = Toxicity in BALB/c mouse xenografted with human HCT-116 cells assessed as liver tissue rupture at 50 mg/kg, po by H and E staining based assay; type: organism-based; details: in vivo
[29] = Toxicity in BALB/c mouse xenografted with human HCT-116 cells assessed as inflammatory cells infiltration at 50 mg/kg, po by H and E staining based assay; type: organism-based; details: in vivo
[30] = Toxicity in BALB/c mouse xenografted with human HCT-116 cells assessed as change in liver cell nucleus shape at 100 mg/kg, po by H and E staining based assay; type: organism-based; details: in vivo
[31] = Toxicity in BALB/c mouse xenografted with human HCT-116 cells assessed as heart damage at 100 mg/kg, po by H and E staining based assay; type: organism-based; details: in vivo
[32] = Toxicity in BALB/c mouse xenografted with human HCT-116 cells assessed as lung damage at 100 mg/kg, po by H and E staining based assay; type: organism-based; details: in vivo
[33] = Toxicity in BALB/c mouse xenografted with human HCT-116 cells assessed as kidney damage at 100 mg/kg, po by H and E staining based assay; type: organism-based; details: in vivo
[34] = Apparent permeability in MDCKII-MDR1 cells; type: ADME, cell-based, Canis lupus familiaris; details: dog, MDCK-MDR1
MDR1 (P-gp) = assay: Efflux ratio of apparent permeability in MDCKII-MDR1 cells; type: ADME, cell-based, Canis lupus familiaris; details: dog, MDCK-MDR1
Cytochrome P450 2C9 = Cytochrome P450 2C9 (Homo sapiens, UniProt P11712); assay: Inhibition of CYP2C9 (unknown origin); type: ADME
Sequence of Cytochrome P450 2C9 (P11712 whole entry): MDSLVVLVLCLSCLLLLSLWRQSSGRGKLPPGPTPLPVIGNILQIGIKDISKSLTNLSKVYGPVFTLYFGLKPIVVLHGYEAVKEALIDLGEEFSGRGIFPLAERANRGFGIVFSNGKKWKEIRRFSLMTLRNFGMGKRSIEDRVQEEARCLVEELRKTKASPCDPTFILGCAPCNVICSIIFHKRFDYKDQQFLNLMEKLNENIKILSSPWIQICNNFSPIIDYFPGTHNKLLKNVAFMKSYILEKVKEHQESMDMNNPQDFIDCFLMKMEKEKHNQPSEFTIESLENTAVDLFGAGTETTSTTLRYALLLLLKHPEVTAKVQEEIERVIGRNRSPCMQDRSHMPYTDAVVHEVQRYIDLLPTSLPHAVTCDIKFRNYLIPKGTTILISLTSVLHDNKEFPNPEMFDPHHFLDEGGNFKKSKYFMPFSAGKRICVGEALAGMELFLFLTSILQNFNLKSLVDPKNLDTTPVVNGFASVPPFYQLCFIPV

Cytochrome P450 2D6 = Cytochrome P450 2D6 (Homo sapiens, UniProt P10635); assay: Inhibition of CYP2D6 (unknown origin); type: ADME
Sequence of Cytochrome P450 2D6 (P10635 whole entry): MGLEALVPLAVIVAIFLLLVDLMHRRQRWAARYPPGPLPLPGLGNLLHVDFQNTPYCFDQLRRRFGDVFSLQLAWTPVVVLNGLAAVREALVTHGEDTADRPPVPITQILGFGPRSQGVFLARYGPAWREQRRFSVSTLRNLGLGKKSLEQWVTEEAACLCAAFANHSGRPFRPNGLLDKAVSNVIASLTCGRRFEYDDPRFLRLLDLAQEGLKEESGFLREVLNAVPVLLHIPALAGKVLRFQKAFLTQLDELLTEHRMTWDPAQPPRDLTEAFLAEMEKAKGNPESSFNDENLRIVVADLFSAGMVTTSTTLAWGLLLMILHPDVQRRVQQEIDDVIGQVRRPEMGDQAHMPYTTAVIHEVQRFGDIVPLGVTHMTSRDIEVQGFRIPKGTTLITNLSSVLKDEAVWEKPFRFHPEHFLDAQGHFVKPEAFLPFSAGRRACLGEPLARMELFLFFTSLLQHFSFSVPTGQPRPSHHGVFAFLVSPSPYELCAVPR

For `CCOc1ncc2cc(-c3ccc4c(c3)N3CCCC3CO4)c(=O)n(-c3ccc(OC(F)F)cc3)c2n1` (configuration not stated), the Activity (HCT-116 [1]) was “inactive”, the “fold change (FC)” value (HCT-116 [2]) was 6 and the Activity [3] was 13%. For the same molecule, the Activity [4] was “Active”, the IC50 (HCT-116 [5]) was 0.079 µM and the viability at 10 µM (HCT-116 [6]) was 77%. The Activity (HCT-116 [7]) was 9%, the Tmax [8] was 0.5 h and the half-life [9] was 1.6 h. For the same molecule, the half-life [10] was 2.9 h, the AUC at 24 h [11] was 9710 ng·h/mL and the Vd [12] was 3.47 L/kg. It also gave a bioavailability [13] of 77%, a Tmax [14] of 1 h and a Cmax [15] of 1380 ng/mL. For the same molecule, the Drug metabolism [16] was “Metabolite_Detected”, the F [17] was 77% and the Drug uptake [18] was “Active”. The Drug uptake [19] was “Not Active”, the Drug uptake [20] was “Not Active” and the inhibition in vivo at 100 mg/kg (HCT-116 [21]) was 96.5%. For the same molecule, the Activity (HCT-116 [22]) was 31%, the Activity [23] was “Non-Toxic” and the Activity (HCT-116 [24]) was “Active”. For the same molecule, the Activity [25] was “Non-Toxic”, the Activity [26] was “Non-Toxic” and the Activity [27] was “Non-Toxic”. The Activity [28] was “Toxic”, the Activity [29] was “Toxic” and the Activity [30] was “Toxic”. The Activity [31] was “Non-Toxic”, the Activity [32] was “Non-Toxic” and the Activity [33] was “Non-Toxic”. The Papp [34] was 13.4 ×10⁻⁶ cm/s, the efflux ratio (MDR1 (P-gp)) was 0.9 and the IC50 (Cytochrome P450 2C9) was 31 µM. For the same molecule, the IC50 (Cytochrome P450 2D6) was 39 µM.
